# Measurements: patent US20150080468A1, “COMPOSITION AND METHOD FOR PROCESSING AND DELIVERING BIOAVAILABLE METHIONINE ANALOGS, DERIVATIVES, AND PRECURSORS, THEREOF” (QUALITY LIQUID FEEDS, priority 2013, published 2015)
# Values joined by “and” are separate entries in the source; they are usually repeats but may differ in a detail not shown here. Equal entries are not always repeated.
# Columns and labels:
# [1] = dairy cows; cited from earlier work
# [2] = cited from earlier work
# [3] = Freeze/thaw study: viscosity, flowability and superfusion (Example 2); format: physicochemical
# Description: A range of inclusion rates of the HMBi was used in the second example to further investigate the reduction or retardation of the superfusion property of the methionine analog (HMBi) added to a simple feed mill blend molasses liquid product.
# Eight formulations were evaluated in regards to product positional stability, product pH, temperature, viscosity as affected by temperature and time. Viscosity measurements were being used to determine flow ability thus whether or not the product can be pumped without external heating. If HMBi is stored in conditions where its temperature drops below 54° F. (12.2° C.), it will solidify or undergo superfusion which will not allow it to be pumped. As you can see in FIG. 6, the HMBi is solid and will remain solid for several hours while thawing. During the thawing process, the HMBi will liquefy with a solid ball surrounded by liquid. This solid ball could potentially plug the inside fixture of a tank not allowing for flow to the pump. During the Example E2 study, it took about eight days of the 100% HMBi in sub-zero temperatures before it underwent superfusion. The container in FIG. 6 had to be shaken quite vigorously to get the HMBi to solidify. It was not moved until the late afternoon of day 7. By the morning of day 8, it was solid.
# The containers used were clear PET plastic one quart capacity with wide mouth openings. All samples were placed in a sub-zero freezer until the samples were solid. As stated above, it took eight days for the 100% HMBi to undergo the superfusion process, thus all eight samples were frozen solid at about −9° F. (−22.8° C.) which is exactly what was needed for Example E2.
# Once all samples were frozen, they were moved to a force-draft fume hood to allow warm air to be drawn over the jars to hasten thawing. When the samples were soft enough to get a metal tipped thermometer into the samples, temperatures were taken and recorded. Viscosity was measured once the samples thawed enough; temperatures were also taken at that time. The process of freezing and thawing was repeated once. These samples were not stirred or shaken except for the 100% HMBi sample to get it to undergo superfusion.
# All formulated samples were mixed by the procedures and using the equipment described in Example E1. The same temperature probe, viscometer, and pH meter were also used.
# Observations and data were collected when the samples had thawed enough to allow for viscosity and temperature measurements. The freezing and thawing was repeated once to confirm results. Laboratory room temperature was between 68 to 70° F. Any product having a viscosity over 5,000 cPs using a spindle sO5 will not flow nor be pumpable without added heat.
# [4] = Sub-zero freezing and thawing of 3×, 4× and 100% HMBi after the 56 day study; format: physicochemical
# Description: Each bar represents a data collection day: 1, 7, 14, 21, 29, 35, 42, 50, and 56 days. […] Mixing or re-circulation every other day will also maintain positional and product stability plus decrease product viscosity. Additionally, lower temperatures were tried for the 3× and 4× plus the HMBi straight or 100% additive after the 56 day study. […] However, the 100% HMBi was frozen solid. The liquid 100% HMBi freezes or solidifies at temperatures below 54° F. or 12° C. when the HMBi liquid is acted upon by an outside force such as mixing or pumping. This “Superfusion” property of the liquid 100% HMBi requires expensive heated storage equipment and plumbing to allow for use in a feed mill environment. After 72 hours in a deep freeze, the 3× and 4× also froze solid.
smiles,measurement,setting,value
"CSCCC(O)C(=O)OC(C)C (stereo not shown) [100% HMBi, isopropyl ester of 2-hydroxy-4-methylthiobutanoic acid]",metabolizable methionine provided,[1],370 g/kg
same,rumen available HMB provided,[1],370 g/kg
same,Viscosity at 20° C.,[2]; 20 °C,19.2 mPa/s
same,"Crystallization (solidification, superfusion) temperature",[2]; ambient pressure,below 54 ° F.
same,pH,[2]; in a 1% aqueous solution,3.6
same,Solubility,[2]; water at 30° C.,25.1 mg/mL
same,Viscosity,"[3]; Dec. 31, 2009, initial, 77.3-79.6 °F, spindle sO1/sO2",37 cPs
same,Viscosity,"[3]; Jan. 1, 2010, in freezer, -1.0 to 1.3 °F, spindle sO6 (100%: sO1)",174 cPs and 173.6 cPs
same,Viscosity,"[3]; Jan. 2, 2010, in freezer, -3.9 to -0.2 °F, spindle sO6 (100%: sO1)",157.6 cPs
same,Physical state (no viscosity reading),"[3]; Jan. 14, 2010, 2:59-3:34 PM, thawing",solid
same,Physical state (no viscosity reading),"[3]; Jan. 14, 2010, 2:59-3:34 PM, thawing, listed as 100%",SOLID
same,Physical state (no viscosity reading),"[3]; Jan. 14, 2010, 3:50-4:15 PM, thawing",still solid
same,Physical state (no viscosity reading),"[3]; Jan. 14, 2010, 3:50-4:15 PM, thawing, listed as 100%",SOLID
same,Physical state (no viscosity reading),"[3]; Jan. 14, 2010, 4:40-5:10 PM, thawing, 47.7 °F",semi-solid
same,Physical state (no viscosity reading),"[3]; Jan. 14, 2010, 4:40-5:10 PM, thawing, 47.7 °F, listed as 100%",SEMI-SOLID
same,Physical state (no viscosity reading),"[3]; Jan. 15, 2010, 4:19-4:51 PM, second thaw, 45.0 °F",semi-solid
same,Physical state (no viscosity reading),"[3]; Jan. 15, 2010, 4:19-4:51 PM, second thaw, 45.0 °F, listed as 100%",SEMI-SOLID
same,Physical state (no viscosity reading),"[3]; Jan. 15, 2010, 10:55-11:20 AM, second freeze",solid
same,Physical state (no viscosity reading),"[3]; Jan. 15, 2010, 10:55-11:20 AM, second freeze, listed as 100%",SOLID
same,Physical state (no viscosity reading),"[3]; Jan. 15, 2010, 12:05-12:27, second thaw",semi-solid
same,Physical state (no viscosity reading),"[3]; Jan. 15, 2010, 12:05-12:27, second thaw, listed as 100%",SOLID
same,Time in sub-zero temperatures before superfusion,"[3]; sub-zero freezer, shaken on day 7",about eight
same,Flowability / state,[4]; less than 0° F. or -17.8° C. for 24 hours,frozen solid
same,Further time until return to a liquid state,[4]; thawing after deep freeze,about 12 hours
same,Temperature at return to a liquid state,[4]; thawing after deep freeze,approximately 56 ° F.
